Experiments:
Format in all cases: in vivo, Arabidopsis thaliana
[1] = system: RD29B and MAPKKK18; assay: Effect of Lys derivatives and nitrogen-containing compounds on induction of environmental stress tolerance genes by ABA (activity level); conditions: for Activity level: total of induction activities of RD29B and MAPKKK18 with 1 mM compound and 0.25 μM ABA, relative to ABA alone taken as 1, >1 enhanced, 1 no effect, <1 suppressed; for effect on the gene expression inducing activity of ABA: 1 mM compound with 0.25 μM ABA
Description: (§1) Four to six young Arabidopsis thaliana plants grown on a 50% concentration MS (Murashige-Skoog) agar medium were transferred to a 6-well plate containing a 50% concentration MS (Murashige-Skoog) liquid medium and pre-cultured for 16 hours, then added with a treatment solution containing each amino acid alone or a treatment solution containing a combination of each amino acid and ABA, and left for 6 hours. Then, RNA was then isolated from the plants with a nucleic acid purification kit (Promega, Maxwell (registered trademark) 16 LEV simplyRNA Tissue Kit). Then, cDNA was synthesized with a cDNA synthesis reagent for real-time PCR (Toyobo, ReverTra Ace (registered trademark) qPCR RT Master Mix).
GAPDH is a glyceraldehyde-3-phosphate dehydrogenase gene and was selected as an internal standard.
Lys or each Lys derivative is used for treatment at 1 mM and ABA at 0.25 μM.

[2] = system: RD29A, RD29B, MAPKKK18, ABF3F and SLAC1 genes; assay: Induction of expression of environmental stress tolerance (ABA-responsive) genes, real-time PCR, relative to GAPDH; conditions: for activity of synergistically enhancing the effect of ABA: RD29B expression, amino acid in combination with ABA
Description: as §1
MAPKKK18 is a gene encoding a kinase (MAPKKK18, MITOGEN-ACTIVATED PROTEIN KINASE KINASE KINASE 18) that functions in the ABA signaling pathway of Arabidopsis thaliana (Zelicourt A. et al., Trends in Plant Science 21: (2016)). RD29A and RD29B are genes encoding hydrophilic proteins (RESPONSIVE TO DESICCATION 29A, RESPONSIVE TO DESICCATION 29B) that are responsive for ABA and environmental stress such as drought stress and salinity stress and considered to be involved in stress tolerance and senescence suppression (Yang S. D. et al., Plant Cell 6: 2155-2168 (2011)). ABF3 is a gene encoding a transcription factor (ABA-responsive element-binding protein) that regulates expression of ABA-responsive genes (Yoshida T. et al., Plant, cell and Environment 38: 35-49 (2015)). SLAC1 is a gene encoding an anion channel involved in stomatal closure (Yoshida et al., J Plant Res (2016) 129:39-49). GAPDH is a glyceraldehyde-3-phosphate dehydrogenase gene and was selected as an internal standard.
The expression levels of the genes were calculated as relative expression levels to the GAPDH gene. Twenty amino acids were divided into 10 each, and the gene expression inducing activity when combined with ABA was evaluated in two tests (n=2).
(§2) The expression levels of the respective genes were calculated as relative expression levels to the GAPDH gene in the same manner as in Example 1.
Separately, Arabidopsis thaliana was treated with a combination of 0.1 mM, 0.25 mM, 1 mM, 2.5 mM, 10 mM, or 25 mM of Lys and 0.25 μM of ABA in the same manner as in Example 1, and expression of MAPKKK18, RD29A, and RD29B genes after 6 hours of treatment was analyzed (n=3). The expression levels of the respective genes were calculated as relative expression levels to the GAPDH gene in the same manner as in Example 1. […]
as §2, §2

[3] = system: RD29A, RD29B, MAPKKK18, ABF3F and SLAC1 genes; assay: as above; conditions: amino acid alone or combination with ABA, 6 hours, n=3

Row | SMILES | Activity level [1] | also measured
1 | O=C(NCCCCCNC(=O)c1ccccc1)c1ccccc1 [II-2] | > 1 | –
2 | N[C@@H](Cc1c[nH]c2ccccc12)C(=O)O [Trp, tryptophan] | – | activity of synergistically enhancing the effect of ABA [2]: synergistically enhance the effect of ABA; activity to induce expression of the environmental stress tolerance gene RD29B [3]: No activity
3 | CC(C)[C@H](N)C(=O)O [Val, valine] | – | activity of synergistically enhancing the effect of ABA [2]: synergistically enhance the effect of ABA; activity to induce expression of the environmental stress tolerance gene RD29B ([2]; amino acid alone or combination with ABA, 6 hours, n=3): No activity
4 | O=C(NCCC[C@H](NC(=O)c1ccccc1)C(=O)O)c1ccccc1 [compound 6] | >1 | –
5 | COC(=O)[C@@H](N)CCCCN [compound 7] | 1 | effect on the gene expression inducing activity of ABA [1]: no effect
6 | CC(=O)NCCCC[C@H](N)C(=O)O [compound 8] | <1 | –
7 | N[C@@H](CCCCNC(=O)c1ccccc1)C(=O)O [compound 9] | <1 | –
8 | N[C@H](CCCCNC(=O)c1ccccc1)C(=O)O [compound 10] | <1 | –
9 | N[C@@H](CCCCNC(=O)OCc1ccccc1)C(=O)O [compound 11] | 1 | effect on the gene expression inducing activity of ABA [1]: no effect
10 | CC(C)(C)OC(=O)NCCCC[C@H](N)C(=O)O [compound 12] | >1 | –
11 | N[C@H](CCCCNC(=O)OCc1ccccc1)C(=O)O [compound 13] | <1 | –
12 | CN(C)CCCC[C@H](N)C(=O)O [compound 14] | >1 | –
13 | CC(=O)N[C@@H](CCCCN)C(=O)O [compound 15] | <1 | –
14 | NCCCC[C@H](NC(=O)/C=C/c1ccccc1)C(=O)O [compound 16] | <1 | –
15 | NCCCC[C@H](NC(=O)OCc1ccccc1)C(=O)O [compound 17] | >1 | –
16 | O=C(NCCC[C@H](NC(=O)OCc1ccccc1)C(=O)O)OCc1ccccc1 [compound 18] | >1 | –
17 | CC(C)(C)OC(=O)NC[C@H](NC(=O)OCc1ccccc1)C(=O)O [compound 19] | >1 | –
18 | CC(C)(C)OC(=O)NCC[C@H](NC(=O)OCc1ccccc1)C(=O)O [compound 20] | >1 | –
19 | CCC(C)C(=O)C(=O)N[C@@H](CCCCNC(=N)N)C(=O)O (some centres unmarked) [compound 21] | <1 | –
20 | COC(=O)[C@H](CCCCN)NC(=O)OCc1ccccc1 [compound 22] | >1 | –
21 | NCCCC[C@H](NC(=O)OCc1ccccc1)C(=O)OCc1ccccc1 [compound 23] | <1 | –
22 | COC(=O)[C@@H](N)CCCCNC(=O)OCc1ccccc1 [compound 24] | >1 | –

Row | SMILES | Activity level [1] | also measured
23 | CC(C)(C)OC(=O)[C@@H](N)CCCCNC(=O)OCc1ccccc1 [compound 25] | 1 | effect on the gene expression inducing activity of ABA [1]: no effect
24 | N[C@@H](CCCCNC(=O)OCc1ccccc1)C(=O)OCc1ccccc1 [compound 26] | <1 | –
25 | COC(=O)[C@@H](N)CCCCNC(=O)OC(C)(C)C [compound 27] | >1 | –
26 | CC(C)(C)OC(=O)NCCCC[C@H](N)C(=O)OC(C)(C)C [compound 28] | 1 | effect on the gene expression inducing activity of ABA [1]: no effect
27 | COC(=O)[C@H](CCCCNC(=O)OC(C)(C)C)NC(=O)OCc1ccccc1 [compound 29] | >1 | –
28 | O=C(NCCCC[C@H](NC(=O)c1ccccc1)C(=O)O)c1ccccc1 [compound 30] | <1 | –
29 | CC(C)(C)OC(=O)N[C@@H](CCCCNC(=O)OCc1ccccc1)C(=O)O [compound 31] | >1 | –
30 | CC(C)(C)OC(=O)NCCCC[C@H](NC(=O)OCc1ccccc1)C(=O)O [compound 32] | >1 | –
31 | O=C(NCCCC[C@H](NC(=O)OCc1ccccc1)C(=O)O)OCc1ccccc1 [compound 33] | >1 | –
32 | O=C(NCCCC[C@@H](NC(=O)OCc1ccccc1)C(=O)O)OCc1ccccc1 [compound 34] | >1 | –
33 | O=C(N[C@@H](CCCCNC(=O)c1ccccc1)C(=O)O)OCc1ccccc1 [compound 35] | >1 | –
34 | CC(C)(C)OC(=O)N[C@@H](CCCCNC(=O)OCc1cccc(Cl)c1)C(=O)O [compound 36] | >1 | –
35 | CC(C)(C)OC(=O)NCCCC[C@H](NC(=O)OC(C)(C)C)C(=O)O [compound 37] | >1 | –
36 | CC(C)(C)OC(=O)N[C@@H](CCCCNC(=O)OC(F)(F)F)C(=O)O [compound 38] | >1 | –
37 | CC(C)(C)OC(=O)NCCCC[C@H](NC(=O)OCC1c2ccccc2-c2ccccc21)C(=O)O [compound 39] | <1 | –
38 | CC(C)(C)OC(=O)N[C@@H](CCCCNC(=O)OCC1c2ccccc2-c2ccccc21)C(=O)O [compound 40] | >1 | –
39 | O=C(NCCCC[C@H](NC(=O)OCc1ccccc1)C(=O)O)OCC1c2ccccc2-c2ccccc21 [compound 41] | <1 | –
40 | O=C(NCCCC[C@H](NC(=O)OCC1c2ccccc2-c2ccccc21)C(=O)O)OCC1c2ccccc2-c2ccccc21 [compound 42] | >1 | –
41 | Cc1ccc(C(NCCCC[C@H](NC(=O)OCC2c3ccccc3-c3ccccc32)C(=O)O)(c2ccccc2)c2ccccc2)cc1 [compound 43] | >1 | –
42 | Cc1cccc(OCC(=O)NCCCC[C@H](NC(=O)COc2cccc(C)c2)C(=O)O)c1 [compound 44] | >1 | –
43 | O=C(O)[C@H](CCCCN1C(=O)c2ccccc2C1=O)N1C(=O)c2ccccc2C1=O [compound 45] | >1 | –
44 | Cn1c(=O)n(CCCC[C@H](NC(=O)c2c(Cl)cccc2Cl)C(=O)O)c(=O)c2ccccc21 [compound 46] | >1 | –

Source: US20230210110A1, “METHOD FOR INDUCING ENVIRONMENTAL STRESS TOLERANCE IN PLANTS” (AJINOMOTO CO., INC., priority 2020, published 2023)
